Test results as given in patent publication US6451834B1, “Indeno[1,2-c]-, naphtho[1,2-c]- and benzo[6,7]cyclohepta[1,2-c]pyrazole derivatives” (BASF Aktiengesellschaft, priority 1997, dated 2002).
pIC50: −log10 of the molar value.

Target: T1, KDR tyrosine kinase (Homo sapiens, UniProt P35968)
T1 construct: KDR intra-cellular domain (aa789-1354); poly-His6 (N); made in house; host or cells: SF-9 insect cells, recombinant baculovirus (pVL1393)
Experiment: KDR in vitro ELISA
Type: biochemical
Settings: ATP 5 μM
Experimental: The following procedure was used to assay the inhibitory effect of compounds of this invention on KDR tyrosine kinase activity:
Dilute PGT stock (50 mg/ml, frozen) in PBS to a 250 μg/ml. […] Add 125 μl PBS to blank wells. Cover with sealing tape and incubate overnight 37° C. Wash 1× with 250 μl washing buffer and dry for about 2 hrs in 37° C. dry incubator.
Prepare inhibitor solutions at a 4× concentration in 20% DMSO in water.
Prepare enzyme solution so that desired units are in 50 μl, e.g. for KDR make to 1 ng/μl for a total of 50 ng per well in the reactions. Store on ice.
Make 4× ATP solution to 20 μM from 100 mM stock in water. Store on ice.
Add 50 μl of the enzyme solution per well.
Add 25 μl 4× ATP for inhibitor assay.
Incubate for 10 minutes at room temperature.
Stop reaction by adding 50 μl 0.05N HCl per well.
Dilute 1 mg/ml aliquot of PY20-HRP (Pierce) antibody to 50 ng/ml in 0.1% BSA in PBS by a 2 step dilution (100×, then 200×).
Add 100 μl Ab per well. Incubate 1 hr at room temp. Incubate 1 hr at 4C.
Prepare TMB substrate and add 100 μl per well.
Monitor OD at 650 nm until 0.6 is reached.
Stop with 1M Phosphoric acid. Shake on plate reader.

T1 sequence (P35968 789-1354): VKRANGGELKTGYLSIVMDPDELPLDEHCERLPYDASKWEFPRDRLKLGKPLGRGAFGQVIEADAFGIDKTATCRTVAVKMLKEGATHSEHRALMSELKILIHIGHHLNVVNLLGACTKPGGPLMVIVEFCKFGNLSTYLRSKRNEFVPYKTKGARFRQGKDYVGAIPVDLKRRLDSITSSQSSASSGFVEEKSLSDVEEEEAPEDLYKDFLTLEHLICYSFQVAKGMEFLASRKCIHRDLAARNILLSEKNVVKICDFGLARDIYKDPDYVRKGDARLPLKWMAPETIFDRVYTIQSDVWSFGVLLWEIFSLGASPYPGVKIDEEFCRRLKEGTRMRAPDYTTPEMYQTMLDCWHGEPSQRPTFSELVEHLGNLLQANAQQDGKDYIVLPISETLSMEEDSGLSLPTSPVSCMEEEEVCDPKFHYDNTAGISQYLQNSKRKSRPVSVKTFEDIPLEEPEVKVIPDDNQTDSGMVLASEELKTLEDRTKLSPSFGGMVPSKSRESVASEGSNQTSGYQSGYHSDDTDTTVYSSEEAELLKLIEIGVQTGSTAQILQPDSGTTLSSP

SMILES | pIC50
Cc1c2c(nn1-c1ccccc1)-c1ccccc1C2=O | < 4.00
C1=NC(n2nc(-c3ccccc3)cc2-c2ccccc2)NC1 (centres unmarked) | < 4.00

Tested on: Human umbilical vein endothelial cells (HUVEC)
Experiment: HUVEC mitogenesis assay
Type: cell-based
Settings: 50 ng/ml VEGF, tritiated thymidine, read-out: VEGF-Stimulated Mitogenesis IC50
Experimental: Human umbilical vein endothelial cells (HUVEC) were cultured in EGM-Complete Media (endothelial growth media supplemented with 10% FBS, hydrocortisone, epidermal growth factor and bovine brain extract as per the supplier's directions). Cells, media and supplements were purchased from Clonetics (San Diego, Calif.). The HUVEC Mitogenesis Assay was used to measure inhibition of mitogenesis induced by VEGF, FGF or Complete Media. Cells were harvested by trypsinization, washed once and suspended in Complete Media (CM) at a concentration of 5,000 cells/0.15 ml. Cells were seeded into 96-well plates at 5,000 cells/well and incubated at 37 C for 24 hours. Cells were washed once with serum-free media (SFM) and incubated under serum-free conditions for 24 hours. Non-serum starved control wells were cultured with CM during this period. Test compounds were prepared as 10 mM stock solutions in DMSO, diluted in SFM and added to wells over a concentration range (0.005-50 μM final concentration). Cells were incubated for 1 hour prior to addition of 50 ng/ml VEGF or FGF (R & D Systems, Minneapolis, Minn.). Complete media stimulated wells received the test compound and stimulus simultaneously. […] Plates were harvested onto filter mats with a Tomtec Harvester and counted with a Betaplate liquid scintillation counter (Wallac).

SMILES | pIC50
c1csc(-c2n[nH]c3c2Cc2ccccc2-3)c1 | 5.70

Tested on: not given
Experiment: not given
Settings: not given

SMILES | melting point [°C]
c1cncc(-c2n[nH]c3c2Cc2ccccc2-3)c1 [Example 1, 3-(3-Pyridyl)-1,4-dihydroindeno[1,2-c]pyrazole] | 223 to 224
c1csc(-c2n[nH]c3c2CCc2ccccc2-3)c1 [Example 3, 3-(2-Thienyl)-4,5-dihydro-1H-benz[g]indazole] | 206 to 208
COc1cccc(-c2n[nH]c3c2Cc2ccccc2-3)c1 [Example 5, 3-(3-methoxyphenyl)-1,4-dihydroindeno[1,2-c]pyrazole] | 172 to 174
COc1ccc(-c2n[nH]c3c2Cc2ccccc2-3)cc1 [Example 6, 3-(4-methoxyphenyl)-1,4-dihydroindeno[1,2-c]pyrazole] | 247
Cc1ccc(-c2n[nH]c3c2Cc2ccccc2-3)cc1 [Example 7, 3-(p-tolyl)-1,4-dihydroindeno[1,2-c]pyrazole] | 267 to 269
COc1ccc2c(c1)Cc1c(-c3cccs3)n[nH]c1-2 [Example 8, 6-methoxy-3-(2-thienyl)-1,4-dihydroindeno[1,2-c]pyrazole] | 212 to 214
c1coc(-c2n[nH]c3c2Cc2ccccc2-3)c1 [Example 9, 3-(2-furyl)-1,4-dihydroindeno[1,2-c]pyrazole] | 195 to 197
c1ccc2c(c1)Cc1c(-c3ccsc3)n[nH]c1-2 [Example 29, 3-(3-thienyl)-1,4-dihydroindeno[1,2-c]pyrazole] | 219 to 220
